Literature values in patent US12048727B2, “Synergistic formulation against acne and a process for the preparation thereof” (COUNCIL OF SCIENTIFIC & INDUSTRIAL RESEARCH, priority 2019, dated 2024).

System: P. acnes strains
Settings: Indian population

SMILES	resistance of antibiotics [%]
CC[C@H]1OC(=O)[C@H](C)[C@@H](O[C@H]2C[C@@](C)(OC)[C@@H](O)[C@H](C)O2)[C@H](C)[C@@H](O[C@@H]2O[C@H](C)C[C@H](N(C)C)[C@H]2O)[C@](C)(O)C[C@@H](C)CN(C)[C@H](C)[C@@H](O)[C@]1(C)O [azithromycin]	100
CC[C@H]1OC(=O)[C@H](C)[C@@H](O[C@H]2C[C@@](C)(OC)[C@@H](O)[C@H](C)O2)[C@H](C)[C@@H](O[C@@H]2O[C@H](C)C[C@H](N(C)C)[C@H]2O)[C@](C)(O)C[C@@H](C)C(=O)[C@H](C)[C@@H](O)[C@]1(C)O [erythromycin]	98
